A value given as a limit tells only on which side of the number the result lay.

Broadly, the fold induction is the signal under treatment as a multiple of the control signal. The low end stands for little rise in signal, the high end for a large rise in signal. The IC50 is the point on the concentration scale where inhibition reaches its midpoint. Read a high IC50 as weaker potency in that assay.

One test concerns p15 protein. Nature of the test: Evaluation of p15 induction activity (Western blotting). Type of test: cell-based. The note with it: test substance 0.1 μM, 24 hrs, ACHN cells or HT-29 cells, compared to DMSO, n=2. The protocol:
ACHN cells or HT-29 cells were cultured in a 6 well plate at 2.5×10^5 cells/1.8 mL/well for 24 hrs, then a test substance (0.1 μM) dissolved in DMSO was added. After 24 hrs, cells were detached using trypsin-EDTA (ethylene diamine tetraacetic acid) and solubilized with NuPAGE LDS sample buffer (Invitrogen). Using an RC DC protein assay kit (BIO-RAD), the protein concentration of the sample was quantitated, and a sample in an amount corresponding to 10 μg of BSA (bovine serum albumin) was analyzed by Western blotting using an anti-p15 antibody. The density of the band stained with the anti-p15 antibody was measured by a densitometer to quantify the amount of p15 protein. As a control, DMSO was used and the test was performed with n=2 and the average protein amount was determined.
Background: A western blot detects proteins with antibodies after separation by electrophoresis.

The subject of test [1] is colorectal cancer cell line HT-29 cells. Nature of the test: Growth inhibitory effect against cancer cell lines (3H-thymidine uptake), HT-29. Type of test: cell-based. The note with it: Homo sapiens, HT-29, inhibition of 3H-thymidine uptake; test substance 18 hrs, then 3H-thymidine 6 hrs; triplicate. The protocol: Renal cancer cell line ACHN cell or colorectal cancer cell line HT-29 cells were cultured in a 96 well plate at 1.0×10^4 cells/90 μL/well for 24 hrs, then a test substance dissolved in DMSO (dimethyl sulfoxide) was added. After 18 hrs, ^3H-thymidine (0.25 μCi/well) was added and the cells were cultured for 6 hrs. Using a cell harvester, the cells were recovered on a UniFilter-96 GF/B glass filter and the ^3H radioactivity uptaken by the cells was measured by TopCount (Packard). As a control, DMSO was used and the activity of the test substance was expressed in the concentration (IC50) necessary for inhibiting ^3H radioactivity uptaken by the cell to 50% of that of the control group. The measurements were made in triplicate.

With `Cn1ccc2cc(Nc3cc(=O)n(C)c4c3c(=O)n(C3CC3)c(=O)n4-c3ccccc3)ccc21` [Example 1-138], in the test on p15 protein, the fold induction at 0.1 µM was ≥ 1.5. The compound further showed an IC50 in test [1] of 100 to 1000 nM.

Turning to `Cn1c(=O)cc(Nc2ccc(C(=O)O)cc2)c2c(=O)n(-c3ccccc3)c(=O)n(-c3ccccc3)c21` [Example 1-37], the fold induction at 0.1 µM in the test on p15 protein was ≥ 1.5.

On to `Cn1c(=O)cc(Nc2ccc(F)cc2F)c2c(=O)n(C3CC3)c(=O)n(-c3ccccc3)c21` [Example 1-162], for which the fold induction at 0.1 µM with p15 protein was ≥ 1.5.

On to `CCn1ccc2cc(Nc3cc(=O)n(C)c4c3c(=O)n(C3CC3)c(=O)n4-c3ccccc3)ccc21` [Example 1-167], for which the fold induction at 0.1 µM with p15 protein is ≥ 1.5.

`CN(C)c1ccc(Nc2cc(=O)n(C)c3c2c(=O)n(C2CC2)c(=O)n3-c2ccccc2)cc1F` [Example 1-143]: the fold induction at 0.1 µM with p15 protein is ≥ 1.5. Further, in test [1], the IC50 is 100 to 1000 nM.

On to `CCn1c(=O)c2c(Nc3ccc(Br)cc3)cc(=O)n(C)c2n(-c2ccccc2)c1=O` [Example 1-96], for which the fold induction at 0.1 µM with p15 protein was ≥ 1.5. The compound further displayed an IC50 in test [1] of 100 to 1000 nM.

With `CCn1c(=O)c2c(Nc3ccc(N(C)C)cc3)cc(=O)n(C)c2n(-c2ccccc2C)c1=O` [Example 1-110], in the test on p15 protein, the fold induction at 0.1 µM is ≥ 1.5.

Consider `CCn1c(=O)c2c(Nc3ccc(Cl)cc3)cc(=O)n(C)c2n(-c2ccccc2C)c1=O` [Example 1-109], for which the fold induction at 0.1 µM in the test on p15 protein was ≥ 1.5.

Consider `COc1ccc(Nc2cc(=O)n(C)c3c2c(=O)n(C2CC2)c(=O)n3-c2ccccc2)c(C)c1` [Example 1-154], for which the fold induction at 0.1 µM in the test on p15 protein is ≥ 1.5.

`Cc1cc(Nc2cc(=O)n(C)c3c2c(=O)n(C2CC2)c(=O)n3-c2ccccc2)ccc1Br` [Example 1-157]: the fold induction at 0.1 µM in the test with p15 protein was ≥ 1.5.

Consider `Cn1c(=O)cc(Nc2ccc(N)cc2)c2c(=O)n(-c3ccccc3)c(=O)n(-c3ccccc3)c21` [Example 1-46], for which, in the test on p15 protein, the fold induction at 0.1 µM is ≥ 1.5.

For `Cn1c(=O)cc(Nc2ccccc2F)c2c(=O)n(C3CC3)c(=O)n(-c3ccccc3)c21` [Example 1-173], in the test with p15 protein, the fold induction at 0.1 µM is ≥ 1.5.

For the compound `Cc1cc(Br)ccc1Nc1cc(=O)n(C)c2c1c(=O)n(C1CC1)c(=O)n2-c1ccccc1` [Example 1-156], the fold induction at 0.1 µM in the test with p15 protein is ≥ 1.5. In test [1], this compound showed an IC50 of 100 to 1000 nM.

`Cn1c(=O)cc(Nc2ccc(O)cc2)c2c(=O)n(C3CC3)c(=O)n(-c3ccccc3)c21` [Example 1-172]: the fold induction at 0.1 µM in the test on p15 protein is ≥ 1.5.

`Cn1c(=O)cc(Nc2ccc(Br)c(F)c2)c2c(=O)n(C3CC3)c(=O)n(-c3ccccc3)c21` [Example 1-151]: in the test with p15 protein, the fold induction at 0.1 µM was ≥ 1.5. The IC50 in test [1] was 100 to 1000 nM.

As to `Cc1cc(Cl)ccc1Nc1cc(=O)n(C)c2c1c(=O)n(-c1ccccc1)c(=O)n2-c1ccccc1` [Example 1-53], the fold induction at 0.1 µM with p15 protein is ≥ 1.5.

Regarding `Cn1c(=O)cc(Nc2ccc(Cl)cc2Cl)c2c(=O)n(C3CC3)c(=O)n(-c3ccccc3)c21` [Example 1-163], the fold induction at 0.1 µM with p15 protein is ≥ 1.5. In test [1], this compound displayed an IC50 of 100 to 1000 nM.

As for `Cn1c(=O)cc(Nc2ccc(Cl)cc2)c2c(=O)n(-c3ccc(F)cc3)c(=O)n(-c3ccc(F)cc3)c21` [Example 1-79], in the test with p15 protein, the fold induction at 0.1 µM was ≥ 1.5.

On to `CN(C)c1ccc(Nc2cc(=O)n(C)c3c2c(=O)n(C2CC2)c(=O)n3-c2ccc(F)cc2)cc1` [Example 1-132], for which the fold induction at 0.1 µM in the test on p15 protein is ≥ 1.5. The compound further yielded an IC50 in test [1] of 100 to 1000 nM.

On to `CC1CC1n1c(=O)c2c(Nc3ccc(Br)cc3)cc(=O)n(C)c2n(-c2ccccc2)c1=O` (centres unmarked) [Example 1-153], for which the fold induction at 0.1 µM with p15 protein was ≥ 1.5. Further, the IC50 in test [1] lay in the range of 100 to 1000 nM.

Take `CCn1c(=O)c2c(Nc3ccc(Br)cc3)cc(=O)n(C)c2n(-c2ccccc2C)c1=O` [Example 1-111]: in the test on p15 protein, the fold induction at 0.1 µM was ≥ 1.5. The IC50 in test [1] was 100 to 1000 nM.

`COc1ccc(Nc2cc(=O)n(C)c3c2c(=O)n(C2CC2)c(=O)n3-c2ccccc2)c(OC)c1` [Example 1-146]: the fold induction at 0.1 µM with p15 protein was ≥ 1.5.

`CCNc1ccc(Nc2cc(=O)n(C)c3c2c(=O)n(C2CC2)c(=O)n3-c2ccccc2)cc1` [Example 1-137]: the fold induction at 0.1 µM in the test on p15 protein is ≥ 1.5.

Consider `Cn1c(=O)c2c(Nc3ccc(Cl)cc3)cc(=O)n(C)c2n(-c2ccccc2)c1=O` [Example 1-35], for which the fold induction at 0.1 µM in the test with p15 protein was ≥ 1.5.

For the compound `Cc1ccc(-n2c(=O)n(C3CC3)c(=O)c3c(Nc4ccc(N(C)C)cc4)cc(=O)n(C)c32)cc1` [Example 1-126], the fold induction at 0.1 µM in the test with p15 protein was ≥ 1.5. In addition, the IC50 in test [1] was in the range of 100 to 1000 nM.

For `CN(C)c1ccc(Nc2cc(=O)n(C)c3c2c(=O)n(C2CC2)c(=O)n3-c2cccc(F)c2)cc1` [Example 1-133], the fold induction at 0.1 µM with p15 protein is ≥ 1.5. This compound also gave an IC50 in test [1] of 100 to 1000 nM.

Take `Cn1c(=O)cc(Nc2ccc(Cl)cc2)c2c(=O)n(C3CCCC3)c(=O)n(-c3ccccc3)c21` [Example 1-80]: in the test on p15 protein, the fold induction at 0.1 µM was ≥ 1.5.

For the compound `Cc1ccc(Nc2cc(=O)n(C)c3c2c(=O)n(C2CC2)c(=O)n3-c2ccccc2)c(F)c1` [Example 1-168], in the test on p15 protein, the fold induction at 0.1 µM is ≥ 1.5. In test [1], this compound gave an IC50 of 10 to 100 nM.

For the compound `Cn1c(=O)cc(Nc2ccc(Br)cc2)c2c(=O)n(C3CCC3)c(=O)n(-c3ccccc3)c21` [Example 1-107], in the test on p15 protein, the fold induction at 0.1 µM is ≥ 1.5.

Regarding `Cn1c(=O)cc(Nc2ccccc2)c2c(=O)n(-c3ccccc3)c(=O)n(-c3ccccc3)c21` [Example 1-12], the fold induction at 0.1 µM in the test on p15 protein was ≥ 1.5.

With `COc1ccc(-n2c(=O)n(C3CC3)c(=O)c3c(Nc4ccc(Br)cc4)cc(=O)n(C)c32)cc1` [Example 1-183], the fold induction at 0.1 µM with p15 protein was ≥ 1.5. Also, the IC50 in test [1] was 100 to 1000 nM.

In the case of `COc1ccccc1-n1c(=O)n(C2CC2)c(=O)c2c(Nc3ccc(Br)cc3F)cc(=O)n(C)c21` [Example 1-166], in the test on p15 protein, the fold induction at 0.1 µM was ≥ 1.5. In test [1], the IC50 was 10 to 100 nM.

In the case of `CNc1ccc(Nc2cc(=O)n(C)c3c2c(=O)n(C2CC2)c(=O)n3-c2ccccc2)cc1` [Example 1-136], the fold induction at 0.1 µM with p15 protein was ≥ 1.5. In test [1], the IC50 lay within 100 to 1000 nM.

On to `CCCC(CCC)c1ccc(Nc2cc(=O)n(C)c3c2c(=O)n(-c2ccccc2)c(=O)n3-c2ccccc2)cc1` [Example 1-40], for which, in the test with p15 protein, the fold induction at 0.1 µM is ≥ 1.5.

Consider `CCNc1ccc(Nc2cc(=O)n(C)c3c2c(=O)n(-c2ccccc2)c(=O)n3-c2ccccc2)cc1` [Example 1-65], for which, in the test on p15 protein, the fold induction at 0.1 µM is ≥ 1.5.

As to `Cn1c(=O)cc(Nc2ccc3c(c2)OCO3)c2c(=O)n(-c3ccccc3)c(=O)n(-c3ccccc3)c21` [Example 1-16], the fold induction at 0.1 µM with p15 protein was ≥ 1.5.

With `Cc1ccccc1-n1c(=O)n(CC(F)(F)F)c(=O)c2c(Nc3ccc(Br)cc3)cc(=O)n(C)c21` [Example 1-108], the fold induction at 0.1 µM in the test on p15 protein is ≥ 1.5.

Take `Cn1c(=O)cc(Nc2ccc(Cl)c(Cl)c2)c2c(=O)n(-c3ccccc3)c(=O)n(-c3ccccc3)c21` [Example 1-17]: the fold induction at 0.1 µM in the test on p15 protein is ≥ 1.5.

Turning to `CCn1c(=O)c2c(Nc3ccc(Br)cc3)cc(=O)n(C)c2n(-c2ccccc2F)c1=O` [Example 1-116], in the test with p15 protein, the fold induction at 0.1 µM was ≥ 1.5. Moreover, in test [1], the IC50 is 100 to 1000 nM.

Take `CCn1c(=O)c2c(Nc3ccc(N(C)C)cc3)cc(=O)n(C)c2n(-c2ccccc2F)c1=O` [Example 1-117]: the fold induction at 0.1 µM with p15 protein is ≥ 1.5. The compound further showed an IC50 in test [1] of 100 to 1000 nM.

On to `Cn1c(=O)cc(Nc2ccc3[nH]ccc3c2)c2c(=O)n(C3CC3)c(=O)n(-c3ccccc3)c21` [Example 1-165], for which the fold induction at 0.1 µM with p15 protein was ≥ 1.5. This compound displayed an IC50 in test [1] of 100 to 1000 nM.

Values taken from patent publication US20180273531A1, “PYRIMIDINE COMPOUND AND MEDICAL USE THEREOF” (Japan Tobacco Inc., priority 2004, published 2018).
